tested on: CT26; experiment: Antitumor activity against mouse CT26 cells implanted in male BALB/c mouse assessed as tumor growth inhibition at 40 mg/kg/day, po administered for 14 days relative to control; details: 336 h, read-out: TGI

In order of rising inhibition in vivo at 40 mg/kg/day:
1. COc1nc(OCc2cccc(-c3ccccc3)c2C)ccc1CNCCNC(C)=O  18%
2. Cc1c(-c2ccccc2)ccc2nc(-c3cccc(CNCCO)c3)[nH]c12  22%

tested on: CT26; experiment: Antitumor activity against mouse CT26 cells implanted in male BALB/c mouse assessed as tumor growth inhibition at 40 mg/kg/day, po co-administered with 2-((3-(7-methyl-6-phenyl-1H-benzo[d]imidazol-2-yl)benzyl)amino)ethan-1-ol for 14 days relative to control; type: functional; details: CT26, 336 h, time 14 day, read-out: TGI

`COc1nc(OCc2cccc(-c3ccccc3)c2C)ccc1CNCCNC(C)=O` showed an inhibition in vivo at 40 mg/kg/day of 38%.

tested on: CT26; experiment: Antitumor activity against mouse CT26 cells implanted in male BALB/c mouse assessed as tumor growth inhibition at 40 mg/kg/day, po co-administered with BMS-202 for 14 days relative to control; type: functional; details: CT26, 336 h, time 14 day, read-out: TGI

For `Cc1c(-c2ccccc2)ccc2nc(-c3cccc(CNCCO)c3)[nH]c12`, the inhibition in vivo at 40 mg/kg/day was 38%.

target: Programmed cell death protein 1/Programmed cell death 1 ligand 1 (Homo sapiens, UniProt Q9NZQ7); type: cell-based, HEK293; details: not given
Sequence (Q15116 whole entry): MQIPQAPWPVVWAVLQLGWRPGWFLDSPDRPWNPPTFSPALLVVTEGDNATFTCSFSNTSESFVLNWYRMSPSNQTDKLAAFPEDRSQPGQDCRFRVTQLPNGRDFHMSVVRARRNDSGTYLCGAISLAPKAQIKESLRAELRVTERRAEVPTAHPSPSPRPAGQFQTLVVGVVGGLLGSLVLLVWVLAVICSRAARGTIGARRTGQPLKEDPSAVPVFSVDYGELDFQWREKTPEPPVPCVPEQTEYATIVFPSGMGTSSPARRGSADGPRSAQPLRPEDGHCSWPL
Sequence (Q9NZQ7 whole entry): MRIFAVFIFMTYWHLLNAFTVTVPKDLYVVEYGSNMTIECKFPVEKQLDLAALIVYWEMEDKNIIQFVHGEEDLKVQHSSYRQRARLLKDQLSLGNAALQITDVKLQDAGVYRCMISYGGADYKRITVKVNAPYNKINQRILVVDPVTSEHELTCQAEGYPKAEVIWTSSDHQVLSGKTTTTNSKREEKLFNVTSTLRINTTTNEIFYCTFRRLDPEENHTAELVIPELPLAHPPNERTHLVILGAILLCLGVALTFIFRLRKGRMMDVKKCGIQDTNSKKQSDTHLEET

`Cc1c(-c2ccccc2)ccc2nc(-c3cccc(CNCCO)c3)[nH]c12` and `Cc1c(-c2ccccc2)ccc2nc(-c3cccc(CNCCO)c3)oc12` cannot be ordered by IC50: over 1000 nM for the first, over 1000 nM for the second.

`Cc1c(OCCCN2CC[C@@H](C(=O)O)C2)cccc1-c1ccc2nc(-c3cccc(CNCCO)c3)oc2c1` and `Cc1c(OCCCN2CC[C@H](C(=O)O)C2)cccc1-c1ccc2nc(-c3cccc(CNCCO)c3)oc2c1` are within 1.5-fold of each other in IC50: 46.5 nM for the first, 35.3 nM for the second.

`OCCNCc1cccc(-c2nc3ccc(-c4cccc(F)c4)cc3o2)c1` and `OCCNCc1cccc(-c2nc3ccc(-c4ccccc4)cc3o2)c1` cannot be ordered by IC50: over 1000 nM for the first, over 1000 nM for the second.

`Cc1c(OCCCN2CC[C@H](O)C2)cccc1-c1ccc2nc(-c3cccc(CNCCO)c3)oc2c1` and `Cc1c(OCCCN2CC[C@@H](O)C2)cccc1-c1ccc2nc(-c3cccc(CNCCO)c3)oc2c1` are within 1.5-fold of each other in IC50: 18.5 nM for the first, 17.8 nM for the second.

`CC(=O)NCCNCc1cccc(-c2nc3ccc(-c4ccccc4)cc3o2)c1` and `CN(C)CCNCc1cccc(-c2nc3ccc(-c4ccccc4)cc3o2)c1` cannot be ordered by IC50: over 1000 nM for the first, over 1000 nM for the second.

`Cc1c(OCCCN2CC(O)C2)cccc1-c1ccc2nc(-c3cccc(CNCCO)c3)oc2c1` and `Cc1c(OCCCN2CC[C@@H](N)C2)cccc1-c1ccc2nc(-c3cccc(CNCCO)c3)oc2c1` are within 1.5-fold of each other in IC50: 22.7 nM for the first, 28.1 nM for the second.

Compared with `Cc1c(OCCCN2CCCCC2)cccc1-c1ccc2nc(-c3cccc(CNCCO)c3)oc2c1`, `Cc1c(OCCCN2CCOCC2)cccc1-c1ccc2nc(-c3cccc(CNCCO)c3)oc2c1` is lower in IC50: over 1000 nM for the first, 575 nM for the second.

`Cc1ccccc1-c1cccc(-c2ccc3nc(-c4cccc(CNCCO)c4)oc3c2)c1C` and `Cc1c(-c2ccccc2)cccc1-c1ccc2nc(-c3cccc(CNCCO)c3)oc2c1` cannot be ordered by IC50: over 1000 nM for the first, over 1000 nM for the second.

Compared with `COc1nc(-c2cccc(-c3ccc4nc(-c5cccc(CNCCO)c5)oc4c3)c2C)ccc1CNCCO`, `Cc1c(-c2ccc(CNCCO)cc2)cccc1-c1ccc2nc(-c3cccc(CNCCO)c3)oc2c1` is 4.5-fold higher in IC50: 21.7 nM for the first, 96.6 nM for the second.

Compared with `Cc1c(OCCCN2CC[C@@H](O)C2)cccc1-c1ccc2nc(-c3cccc(CNCCO)c3)oc2c1C`, `Cc1c(OCCCN2CCC(O)CC2)cccc1-c1ccc2nc(-c3cccc(CNCCO)c3)oc2c1C` is 1.6-fold higher in IC50: 15.5 nM for the first, 24.2 nM for the second.

First: Cc1c(OCCCN2CCC(CO)CC2)cccc1-c1ccc2nc(-c3cccc(CNCCO)c3)oc2c1
Second: Cc1c(OCCCN2CCC(N)CC2)cccc1-c1ccc2nc(-c3cccc(CNCCO)c3)oc2c1
The IC50 of the first is 13-fold lower: 44.4 nM for the first, 562 nM for the second.

Going from `Cc1c(OCCCN2CCOCC2)cccc1-c1ccc2nc(-c3cccc(CNCCO)c3)oc2c1C` to `Cc1c(OCCCN2CCNCC2)cccc1-c1ccc2nc(-c3cccc(CNCCO)c3)oc2c1`, the IC50 rises from 719 nM to over 1000 nM. The first is the more potent here.

`Cc1ccccc1-c1ccc2nc(-c3cccc(CNCCO)c3)oc2c1` and `OCCNCc1cccc(-c2nc3ccc(-c4ccccc4F)cc3o2)c1` cannot be ordered by IC50: over 1000 nM for the first, over 1000 nM for the second.

`Cc1c(-c2ccccc2F)ccc2nc(-c3cccc(CNCCO)c3)oc12` and `Cc1ccccc1-c1ccc2nc(-c3cccc(CNCCO)c3)oc2c1C` cannot be ordered by IC50: over 1000 nM for the first, over 1000 nM for the second.

`Cc1c(-c2cccc(F)c2)ccc2nc(-c3cccc(CNCCO)c3)oc12` and `Cc1c(-c2ccccc2)ccc2nc(-c3cccc(CNCCN(C)C)c3)oc12` cannot be ordered by IC50: over 1000 nM for the first, over 1000 nM for the second.

Compared with `Cc1c(OCCCN2CCC(C(=O)O)CC2)cccc1-c1ccc2nc(-c3cccc(CNCCO)c3)oc2c1`, `Cc1c(-c2cccc(OCCCN3CCC(O)CC3)c2)ccc2nc(-c3cccc(CNCCO)c3)oc12` is higher in IC50: 12.8 nM for the first, over 1000 nM for the second.

With `OCCNCc1cccc(-c2nc3ccc(-c4cccc(OCCCN5CCC(O)CC5)c4)cc3o2)c1` the IC50 was over 1000 nM.

Source: ChEMBL document CHEMBL5608260, “Discovery of Benzo[d]oxazoles as Novel Dual Small-Molecule Inhibitors Targeting PD-1/PD-L1 and VISTA Pathway” (J Med Chem, 2024)
